This passage reports pest or weed control and melting point results from patent publication US20090118375A1, “Optically active phthalamides” (priority 2004, published 2009).

The subject of one data set is Phaedon cochleariae. The experiment in a line: Phaedon test (spray application). Format: in vivo. To be noted: topical, 168 h, spray on Chinese cabbage leaves, after 7 d, read-out: Kill rate in % after 7 d. As for the experimental part: Phaedon Test (Spray Application) [table] To produce a suitable preparation of active compound, 1 part by weight of active compound is mixed with the stated amounts of solvent and emulsifier, and the concentrate is diluted with emulsifier-containing water to the desired concentration. Chinese cabbage leaves (Brassica pekinensis) are treated by being sprayed with the preparation of the active compound of the desired concentration and are infested with mustard beetle larvae (Phaedon cochleariae) after the leaves have dried.

In another data set the test system is Spodoptera frugiperda. The experiment in a line: Spodoptera frugiperda test (spray application). Format: in vivo. The following applies: topical, 168 h, spray on maize leaf slices, after 7 d, read-out: Kill rate in % after 7 d. As for the experimental part:
Spodoptera frugiperda Test (Spray Application)
(§1) To produce a suitable preparation of active compound, 1 part by weight of active compound is mixed with the stated amounts of solvent and emulsifier, and the concentrate is diluted with emulsifier-containing water to the desired concentration.
Maize leave slices (Zea mays) are treated by being sprayed with the preparation of the active compound of the desired concentration and are infested with caterpillars of the fall army worm (Spodoptera frugiperda) after the leaves have dried.
(§2) After the specified period of time, the mortality in % is determined. 100% means that all the […] have been killed; 0% means that none of the […] have been killed.

For the next data set, the system named is Myzus persicae. The experiment in a line: Myzus test (spray application). Format: in vivo. The following applies: topical, 120 h, spray on Chinese cabbage leaves, after 5 d, read-out: Kill rate in % after 5 d. As for the experimental part:
Myzus Test (Spray Application)
as §1
Chinese cabbage leaves (Brassica pekinensis), which are infested by the green peach aphid (Myzus persicae), are treated by being sprayed with the preparation of the active compound of the desired concentration.
as §2

The subject of a further data set is Heliothis armigera. The experiment in a line: Heliothis armigera test. To be noted: Helicoverpa armigera, 168 h, soybean shoots dipped, after 7 d, read-out: Kill rate in % after 7 d. Format: in vivo. As for the experimental part:
as §1
Soybean shoots (Glycine max) are treated by being dipped into the preparation of active compound of the desired concentration and are populated with caterpillars of Heliothis armigera while the leaves are still moist.
After the desired period of time, the kill in % is determined. 100% means that all caterpillars have been killed; 0% means that none of the caterpillars have been killed.

Regarding `CCS(=O)(=O)C[C@H](C)NC(=O)c1c(I)cccc1C(=O)Nc1ccc(C(F)(C(F)(F)F)C(F)(F)Br)cc1C` (some centres unmarked) [Compound 2], the pest or weed control at 20 g/ha with Phaedon cochleariae worked out at 100%.
Take `CCSC[C@H](C)NC(=O)c1c(I)cccc1C(=O)Nc1ccc(C(F)(C(F)F)C(F)(F)F)cc1Br` (some centres unmarked) [Compound 6]: in the data set with Spodoptera frugiperda, the pest or weed control at 20 g/ha is 100%.
For `CCS(=O)(=O)C[C@H](C)NC(=O)c1c(I)cccc1C(=O)Nc1ccc(C(C(F)F)C(F)(F)F)cc1C` (some centres unmarked) [Compound 7], the pest or weed control at 100 g/ha in the data set with Myzus persicae was determined as 100%.
What is called melting point is the temperature, or range, at which the solid turns liquid. For `CSC[C@H](C)NC(=O)c1c(I)cccc1C(=O)Nc1ccc(C(F)(C(F)(F)F)C(F)(F)Br)cc1C` (stereo partly drawn) [Compound 9, N^1-[4-(2-Bromo-1,2,2-trifluoro-1-trifluoromethyl-ethyl)-2-methyl-phenyl]-3-iodo-N^2-[(S)-1-methyl-2-methylsulfanyl-ethyl]-phthalamide], the melting point was 124 °C. Further, the pest or weed control at 20 ppm in the data set with Heliothis armigera was found to be 100%.
With `CSC[C@H](C)NC(=O)c1c(I)cccc1C(=O)Nc1ccc(C(F)(C(F)F)C(F)(F)F)cc1C` (some centres unmarked) [Compound 10], the pest or weed control at 20 g/ha in the data set with Phaedon cochleariae amounted to 100%.
For `CSC[C@H](C)NC(=O)c1c(I)cccc1C(=O)Nc1ccc(C(F)(C(F)F)C(F)(F)F)cc1Cl` (some centres unmarked) [Compound 12], in the data set with Spodoptera frugiperda, the pest or weed control at 20 g/ha is 100%.
For the molecule `CSC[C@H](C)NC(=O)c1c(I)cccc1C(=O)Nc1ccc(C(C(F)F)C(F)(F)F)cc1Cl` (some centres unmarked) [Compound 14], the pest or weed control at 20 ppm with Heliothis armigera was found to be 100%. Besides, the pest or weed control at 100 g/ha with Myzus persicae amounted to 100%.
In the case of `CSC[C@H](C)NC(=O)c1c(I)cccc1C(=O)Nc1ccc(C(F)(C(F)F)C(F)(F)F)cc1Br` (some centres unmarked) [Compound 15], the pest or weed control at 20 g/ha in the data set with Phaedon cochleariae was determined as 100%.
Turning to `CSC[C@H](C)NC(=O)c1c(I)cccc1C(=O)Nc1ccc(C(F)(C(F)F)C(F)(F)F)cc1F` (some centres unmarked) [Compound 16], the pest or weed control at 20 g/ha in the data set on Spodoptera frugiperda came out at 100%.
Take `CSC[C@H](C)NC(=O)c1c(I)cccc1C(=O)Nc1ccc(C(C(F)F)C(F)(F)F)cc1F` (some centres unmarked) [Compound 17]: the pest or weed control at 100 g/ha in the data set on Myzus persicae came to 100%.
Molecule `Cc1cc(C(C(F)F)C(F)(F)F)ccc1NC(=O)c1cccc(I)c1C(=O)N[C@@H](C)CS(C)(=O)=O` (some centres unmarked) [Compound 20] came in with a melting point of 123 °C. Moreover, in the data set with Heliothis armigera, the pest or weed control at 20 ppm came to 100%.
Turning to `CSC[C@H](C)NC(=O)c1c(I)cccc1C(=O)Nc1ccc(C(C(F)F)C(F)(F)F)cc1Br` (some centres unmarked) [Compound 22], the pest or weed control at 20 g/ha in the data set on Phaedon cochleariae was determined as 100%.
On to `CCS(=O)(=O)C[C@H](C)NC(=O)c1c(I)cccc1C(=O)Nc1ccc(C(C(F)F)C(F)(F)F)cc1Cl` (some centres unmarked) [Compound 26], for which the pest or weed control at 100 g/ha in the data set with Myzus persicae worked out at 100%. Besides, the pest or weed control at 20 g/ha with Spodoptera frugiperda is 100%.
Take `CSC[C@H](C)NC(=O)c1c(I)cccc1C(=O)Nc1ccc(C(F)(C(F)F)C(F)(F)F)cc1C#N` (some centres unmarked) [Compound 29]: in the data set on Phaedon cochleariae, the pest or weed control at 20 g/ha was determined as 83%.
As to `C[C@@H](CS(C)(=O)=O)NC(=O)c1c(I)cccc1C(=O)Nc1ccc(C(F)(C(F)F)C(F)(F)F)cc1Br` (some centres unmarked) [Compound 30], the pest or weed control at 20 g/ha with Spodoptera frugiperda was found to be 100%.
For the molecule `CSC[C@H](C)NC(=O)c1c(Cl)cccc1C(=O)Nc1ccc(C(F)(C(F)F)C(F)(F)F)cc1C` (some centres unmarked) [Compound 39], in the data set on Spodoptera frugiperda, the pest or weed control at 20 g/ha stood at 100%.
In turn, `CSC[C@H](C)NC(=O)c1c(Cl)cccc1C(=O)Nc1ccc(C(C(F)F)C(F)(F)F)cc1C` (some centres unmarked) [Compound 40] registered a melting point of 105 °C. In addition, the pest or weed control at 20 ppm in the data set with Heliothis armigera was 100%.
For `CSC[C@H](C)NC(=O)c1c(Cl)cccc1C(=O)Nc1ccc(C(F)(C(F)F)C(F)(F)F)cc1Cl` (some centres unmarked) [Compound 41], the pest or weed control at 20 g/ha with Phaedon cochleariae was 100%.
As for `Cc1cc(C(F)(C(F)(F)F)C(F)(F)Br)ccc1NC(=O)c1cccc(Cl)c1C(=O)N[C@@H](C)CS(C)(=O)=O` (some centres unmarked) [Compound 43], the pest or weed control at 100 g/ha with Myzus persicae amounted to 100%.
In the case of `CCSC[C@H](C)NC(=O)c1c(Cl)cccc1C(=O)Nc1ccc(C(F)(C(F)(F)F)C(F)(F)Br)cc1C` (some centres unmarked) [Compound 45], in the data set on Phaedon cochleariae, the pest or weed control at 20 g/ha was 100%.
Take `C[C@@H](CS(C)(=O)=O)NC(=O)c1c(Cl)cccc1C(=O)Nc1ccc(C(C(F)F)C(F)(F)F)cc1Cl` (some centres unmarked) [Compound 48]: the melting point was found to be 198 °C. The pest or weed control at 20 ppm with Heliothis armigera worked out at 100%.
With `CCS(=O)(=O)C[C@H](C)NC(=O)c1c(Cl)cccc1C(=O)Nc1ccc(C(F)(C(F)(F)F)C(F)(F)Br)cc1C` (some centres unmarked) [Compound 49], in the data set with Spodoptera frugiperda, the pest or weed control at 20 g/ha is 100%.
For the molecule `CCSC[C@H](C)NC(=O)c1c(Cl)cccc1C(=O)Nc1ccc(C(F)(C(F)F)C(F)(F)F)cc1Cl` (some centres unmarked) [Compound 50], the pest or weed control at 20 g/ha in the data set on Phaedon cochleariae is 100%.
Consider `CCSC[C@H](C)NC(=O)c1c(Cl)cccc1C(=O)Nc1ccc(C(C(F)F)C(F)(F)F)cc1Cl` (some centres unmarked) [Compound 51], for which the pest or weed control at 100 g/ha in the data set with Myzus persicae was 100%.
Regarding `CCSC[C@H](C)NC(=O)c1c(Br)cccc1C(=O)Nc1ccc(C(F)(C(F)F)C(F)(F)F)cc1Cl` (some centres unmarked) [Compound 53], the melting point turned out to be 148 °C. The pest or weed control at 20 ppm in the data set on Heliothis armigera was 100%.
`CCS(=O)(=O)C[C@H](C)NC(=O)c1c(Cl)cccc1C(=O)Nc1ccc(C(F)(C(F)F)C(F)(F)F)cc1Cl` (some centres unmarked) [Compound 55] gave a melting point of 175 °C. The pest or weed control at 20 ppm in the data set on Heliothis armigera was 100%.
Consider `CCS(=O)(=O)C[C@H](C)NC(=O)c1c(Br)cccc1C(=O)Nc1ccc(C(F)(C(F)(F)F)C(F)(F)Br)cc1C` (some centres unmarked) [Compound 57], for which the pest or weed control at 20 g/ha in the data set with Phaedon cochleariae worked out at 100%.
`CCS(=O)(=O)C[C@H](C)NC(=O)c1c(Br)cccc1C(=O)Nc1ccc(C(F)(C(F)F)C(F)(F)F)cc1Cl` (some centres unmarked) [Compound 58] gave a melting point of 118 °C. In addition, the pest or weed control at 20 ppm in the data set with Heliothis armigera was found to be 100%.
With `Cc1cc(C(C(F)F)C(F)(F)F)ccc1NC(=O)c1cccc(I)c1C(=O)N[C@@H](C)C[S+](C)[O-]` (some centres unmarked) [Compound 60], the pest or weed control at 20 g/ha with Phaedon cochleariae worked out at 100%.
For `CC[S+]([O-])C[C@H](C)NC(=O)c1c(I)cccc1C(=O)Nc1ccc(C(C(F)F)C(F)(F)F)cc1C` (some centres unmarked) [Compound 61], the pest or weed control at 20 g/ha with Phaedon cochleariae was 100%.
For `Cc1cc(C(C(F)F)C(F)(F)F)ccc1NC(=O)c1cccc(Cl)c1C(=O)N[C@@H](C)C[S+](C)[O-]` (some centres unmarked) [Compound 62], the pest or weed control at 100 g/ha in the data set on Myzus persicae worked out at 100%.
Turning to `CSC[C@H](C)NC(=O)c1c(Br)cccc1C(=O)Nc1ccc(C(F)(C(F)(F)F)C(F)(F)Br)cc1C` (some centres unmarked) [Compound 63], the pest or weed control at 100 g/ha in the data set on Myzus persicae was found to be 90%.
As for `Cc1cc(C(F)(C(F)(F)F)C(F)(F)Br)ccc1NC(=O)c1cccc(Br)c1C(=O)N[C@@H](C)CS(C)(=O)=O` (some centres unmarked) [Compound 64], the pest or weed control at 20 g/ha with Spodoptera frugiperda turned out to be 90%.
Consider `Cc1cc(C(F)(C(F)(F)F)C(F)(F)Br)ccc1NC(=O)c1cccc(I)c1C(=O)N[C@@H](C)C[S+](C)[O-]` (stereo partly drawn) [Compound 65, N^1-[4-(2-Bromo-1,2,2-trifluoro-1-trifluoromethyl-ethyl)-2-methyl-phenyl]-3-iodo-N^2-[2-methanesulfinyl-(S)-1-methyl-ethyl]-phthalamide], for which the pest or weed control at 200 g/ha in the data set on Spodoptera frugiperda (200 g/ha) is 100%.
For `Cc1cc(C(F)(C(F)F)C(F)(F)F)ccc1NC(=O)c1cccc(I)c1C(=O)N[C@@H](C)C[S+](C)[O-]` (some centres unmarked) [Compound 66], the pest or weed control at 100 g/ha in the data set with Myzus persicae worked out at 100%. Also, the pest or weed control at 20 g/ha in the data set with Spodoptera frugiperda came out at 100%.
In turn, `CCSC[C@H](C)NC(=O)c1c(Br)cccc1C(=O)Nc1ccc(C(F)(C(F)F)C(F)(F)F)cc1Br` (some centres unmarked) [Compound 68] registered a melting point of 140 to 142 °C. For the same molecule, the pest or weed control at 20 ppm in the data set on Heliothis armigera was found to be 100%.
